Entries after “also recorded” stand apart in the source; their conditions may differ. Read-outs that look alike come from different tables or passages of the source.

The subject of one experiment is diabetic mice. Conditions: has been shown; cited from earlier work.
The target in a further experiment is GPCR109a (Homo sapiens, UniProt Q8TDS4). Conditions: doses of 5 mM and below; FIG. 6A. The protocol:
(§1) Cells were grown in DMEM medium containing 10% FBS, 1× non-essential amino acids (Gibco #111450-040), 20 mM HEPES and 250 μg/mL Geneticin® (Gibco #10131-035). Cells were harvested with 0.25% Trypsin/EDTA (Gibco #25200-056), pelleted at 1,200×g for 6 minutes and resuspended in DMEM media described above minus Geneticin®. The cells were seeded at 4×10^4 cells/well/100 μL of a clear bottom/black 96-well plate and grown overnight. The calcium mobilization assays was performed using Screen Quest Fluo-8 Medium Removal Calcium Assay Kit (AAT Bioquest #36308) according to the manufacturer's protocol. Briefly, cells were washed with 100 μL volume of Hank's balanced salt solution, 20 mM HEPES, pH 7.4 and loaded with a buffer containing HBSS, 20 mM HEPES, 1× Pluronic F127 and the Fluo-8 NW dye. The cells were incubated for 30 minutes at 37° C. followed by a 30 minute room temperature incubation. Drug stocks were prepared at 100× concentration and diluted 1:33 in HBSS, 20 mM HEPES, pH 7.4 in a 96-well plate (Corning #3641). Calcium mobilization was measured using the FlexStation 3 (Molecular Devices) at excitation wavelength of 490 nm and emission wavelength of 525 nm. Fluorescence was measured for 180 seconds at 5 second intervals with the addition of compound at a 1:3 dilution after 15 seconds. Peak fluorescence values were calculated using SoftMax Pro 5 (Molecular Devices). The fluorescence values obtained from control wells without cells are subtracted from wells containing treated cells to correct for background. The ratio of fluorescence values of treated cells to vehicle control wells was used to calculate fold activity of the compounds.
(§2) The specificity of the agonist activity was determined by testing in the cell lines that over-express GPCR40 and GPCR 109a.

In the next experiment the target is GPCR40 (Homo sapiens, UniProt O14842). The conditions noted are these: doses of 5 mM and below; FIG. 7A. On the procedure:
as §1, §2

Experiment [1] concerns C57/BL/6J mice and diabetic mouse models. The conditions noted are these: previous studies (Zhang 2013; U.S. Pat. No. 8,664,177); cited from earlier work.
Another experiment relates to MrgprD^−/− (KO) mice. Conditions: P<0.05 KO vs. WT. The protocol: (§3) The mice were fasted overnight and their fasting glucose levels were measured. […] Blood glucose levels were measured at 30, 60, 90 and 120 minutes after glucose loading.
as §3

The target in experiment [2] is T1, MRGD (Homo sapiens, UniProt Q8TDS7). The experiment in a line: Calcium mobilization in MRGD over-expressing cells. On the set-up: host or cells: ChemiScreen over-expressing cell line, given as 'HEK 293T cells (Chem-1, EMD Millipore)'. In kind it is cell-based. The conditions noted are these: for activation of calcium mobilization: Example 6, FIG. 10, entire dose range. The protocol:
as §1
MRGD cells (EMD Millipore, MA) were treated with either β-alanine, or alamandine at various concentrations (FIG. 10) and calcium mobilization was monitored using a FlexStation 3 Microplate Reader (Molecular Devices) as described in Example 4.

In a further experiment the test system is C57BL/6J mice. The experiment in a line: Oral glucose tolerance test (OGTT). In kind it is in vivo, mouse. Conditions: for significance of blood glucose lowering in OGTT / blood glucose in response to a glucose load (OGTT): Example 5, FIG. 9; for blood glucose in response to a glucose load (OGTT): 1, 0.5 and 0.1 mg/g body weight; for overall effect on blood glucose in OGTT: Example 8, FIG. 13, GABA 200 mg/kg, DT-109 1 mg/g, p<0.01 2-way ANOVA; for overall effect on blood glucose in OGTT vs vehicle: Example 9, FIG. 14, DT-110 1 mg/g, alamandine 10 mg/g, metformin 0.2 mg/g. The protocol:
C57BL/6J mice were received from Jackson Laboratories at 4 weeks old and aged to 7 weeks and then grouped by body weight into 4 groups of 10. The mice were fasted overnight (12 hours) prior to the assay. Body weights and blood glucose (FreeStyle Lite glucometer) levels were determined. […] At 30, 60, 90, and 120 minutes glucose levels were measured using whole blood collected from the tip of the tail via needle puncture. Upon the final 120 min measurement, food was returned to the mice.
Oral glucose tolerance tests (OGTTs) were performed as described in Example 1.
(§4) C57BL/6J mice were received from Jackson Laboratories at 4 weeks old and aged to 7 weeks and then grouped by body weight into 4 groups of 10. The mice were fasted overnight (12 hours) prior to the assay. Body weights and blood glucose (FreeStyle Lite glucometer) levels were determined. […] At 30, 60, 90, and 120 minutes glucose levels were measured using whole blood collected from the tip of the tail via needle puncture.
as §4

In experiment [3] the test system is STC-1 cells. Conditions: has been shown; cited from earlier work.
The subject of experiment [4] is STC-1 cells. The experiment in a line: GLP-1 secretion from STC-1 cells (ELISA). In kind it is cell-based, mouse. Conditions: STC-1 cells, co-treatment with DT-110, 2 hours; FIG. 3. The protocol: The pathways and sites of action of H89 and U73122 are graphically represented in FIG. 2.
Supernatants were collected for GLP-1 measurement. and the GLP-1 concentration was measured using a total GLP-1 (7-36 and 9-36) ELISA kit according to manufacturer's instruction (Alpco. Salem, N.H.).

The target of experiment [5] is T1, MRGD. The experiment is described as follows: Calcium mobilization in MRGD cells, antagonist mode. On the set-up: host or cells: ChemiScreen over-expressing cell line, given as 'HEK 293T cells (Chem-1, EMD Millipore)'. It is filed as cell-based. Conditions: 15 min pre-incubation 30 nM-3 μM, FIG. 11. The protocol: A similar assay was run in the antagonist mode where cells were first incubated with 0, 30 nM, 300 nM or 3 μM alamandine as shown in FIG. 11 (x-axis) for 15 minutes. Then one of 3 different agonists was added to the wells, at their EC90 and the calcium mobilization recorded.

In a further experiment the test system is eNOS. The experiment in a line: eNOS mRNA expression in HUVEC. In kind it is cell-based, human. The conditions noted are these: FIG. 15. An excerpt:
It has been shown that activation of MRGD by alamandine plays an important role in vasodilation by increasing nitric oxide (NO) production. NO produced by the endothelium is an important protective molecule in the vasculature and is mainly generated by the enzyme endothelial NO synthase (eNOS) in blood vessels. Enhancing the expression of eNOS has been considered as possible therapeutic strategy for reducing cardiovascular risk.

In experiment [6] the target is MAS-related G-protein-coupled receptor member D (MRGD) (human, UniProt Q8TDS7 1-321). The experiment is described as follows: cell-based or functional assay.
Sequence of MAS-related G-protein-coupled receptor member D (MRGD) (Q8TDS7 whole entry): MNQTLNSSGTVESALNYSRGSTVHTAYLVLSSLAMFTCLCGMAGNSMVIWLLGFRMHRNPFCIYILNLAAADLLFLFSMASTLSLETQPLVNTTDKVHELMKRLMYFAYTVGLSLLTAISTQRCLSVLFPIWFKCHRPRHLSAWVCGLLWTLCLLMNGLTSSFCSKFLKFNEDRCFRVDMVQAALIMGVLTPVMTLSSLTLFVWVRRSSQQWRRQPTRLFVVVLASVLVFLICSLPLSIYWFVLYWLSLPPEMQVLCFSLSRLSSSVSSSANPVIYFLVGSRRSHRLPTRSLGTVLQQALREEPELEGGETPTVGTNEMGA

T1 sequence (Q8TDS7 whole entry): as above
Sequence of GPCR109a (Q8TDS4 whole entry): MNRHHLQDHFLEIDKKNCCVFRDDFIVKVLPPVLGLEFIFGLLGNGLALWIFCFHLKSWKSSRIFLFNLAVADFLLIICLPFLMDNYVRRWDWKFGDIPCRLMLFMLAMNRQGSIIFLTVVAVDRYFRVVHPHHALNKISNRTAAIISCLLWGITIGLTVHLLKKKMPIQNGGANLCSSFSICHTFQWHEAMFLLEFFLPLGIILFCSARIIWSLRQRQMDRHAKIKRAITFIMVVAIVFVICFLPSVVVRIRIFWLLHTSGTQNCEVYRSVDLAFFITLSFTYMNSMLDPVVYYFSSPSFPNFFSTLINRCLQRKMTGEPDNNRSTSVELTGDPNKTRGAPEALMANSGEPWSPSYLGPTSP
Sequence of GPCR40 (O14842 whole entry): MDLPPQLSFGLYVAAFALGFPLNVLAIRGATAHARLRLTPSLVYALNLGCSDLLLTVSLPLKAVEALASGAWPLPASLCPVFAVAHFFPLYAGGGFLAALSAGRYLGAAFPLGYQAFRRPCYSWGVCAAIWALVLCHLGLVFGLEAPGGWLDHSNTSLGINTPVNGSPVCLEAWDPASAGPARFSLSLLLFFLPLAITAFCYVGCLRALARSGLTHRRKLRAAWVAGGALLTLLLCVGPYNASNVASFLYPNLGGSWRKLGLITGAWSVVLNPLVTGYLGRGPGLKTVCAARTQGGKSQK

Consider `CC(C)C[C@H](NC(=O)CNC(=O)CN)C(=O)O`, for which, in the experiment with diabetic mice, the GLP-1 level entry is “elevate GLP-1 level”. Moreover, the “agonist activity (Ca2+ flux)” value on GPCR109a and at GPCR40 was “inactive” throughout. Further, in experiment [1], the blood glucose result is “lower blood glucose”. Besides, the “reduction of blood glucose levels in KO mice compared with WT mice (OGTT)” value with MrgprD^−/− (KO) mice (0.25 mg/g with 2 mg/g glucose oral) and with MrgprD^−/− (KO) mice (0.5 mg/g with 2 mg/g glucose oral) was “significantly impaired” in each case. Also, the calcium mobilization activity entry at MRGD [2] (at 5 mM, highest dose used, Example 4) is given as “active”. The “blood glucose levels during OGTT” value in the experiment with C57BL/6J mice (Example 1, FIG. 1A, 2 mg/g glucose plus 1.0, 0.5 or 0.1 mg/g oral gavage, 30-120 min) is “lowers blood glucose levels in C57BL/6J mice during OGTT in a dose dependent manner”. The “blood glucose area under curve (AUC) in OGTT” value in the experiment on C57BL/6J mice (Example 1, FIG. 1B, 1.0, 0.5 or 0.1 mg/g oral, p<0.01 vs control) is on record as “significantly lowers blood glucose in mice in a dose dependent manner”. Further, the “significance of blood glucose lowering in OGTT” value with C57BL/6J mice (0.1 mg/g), in the experiment on C57BL/6J mice (0.5 mg/g) and in the experiment with C57BL/6J mice (1 mg/g) was “significant” in each case. Further, the “blood glucose in response to a glucose load (OGTT)” value with C57BL/6J mice is given as “lower blood glucose in response to a glucose load, in a dose-dependent manner”. In the experiment with C57BL/6J mice, the “overall effect on blood glucose in OGTT” value is “overall significant effect in lowering blood glucose”. For the same molecule, in the experiment with STC-1 cells [3], the GLP-1 secretion result is listed as “stimulate GLP-1 secretion”.

For the molecule `NCCCC(=O)O` [GABA, gamma amino butyric acid, reference compound], at MRGD [2] (Example 7, FIG. 12, read-out: half maximal effective concentration (EC50)), the EC50 is approximately 68 µM. The “overall effect on blood glucose in OGTT” value in the experiment on C57BL/6J mice was “overall significant effect in lowering blood glucose”.

Take `O=S(=O)(NCCNC/C=C/c1ccc(Br)cc1)c1cccc2cnccc12` [H89]: in the experiment on STC-1 cells [4], the “inhibition of DT-110 stimulated GLP-1 secretion” value is recorded as “inhibit DT-110 stimulated GLP-1 secretion; also recorded: partially inhibited”.

Take `COc1ccc2c(c1)CC[C@@H]1[C@@H]2CC[C@]2(C)[C@@H](NCCCCCCN3C(=O)C=CC3=O)CC[C@@H]12` [U73122]: the “inhibition of DT-110 stimulated GLP-1 secretion” value in the experiment with STC-1 cells [4] was “inhibit DT-110 stimulated GLP-1 secretion; also recorded: partially inhibited”.

Regarding `CN(C)C(=N)N=C(N)N` [metformin, reference compound], in the experiment on C57BL/6J mice, the “overall effect on blood glucose in OGTT vs vehicle” value is “significant effect on blood glucose”. Also, the “effect on blood glucose compared with alamandine” value with C57BL/6J mice (Example 9, P<0.001) was “significantly better than alamandine”.

Take `NCCC(=O)O` [β-alanine, reference compound]: on MRGD [2] (Example 4, FIG. 8, DT-110 lot 2, read-out: EC50), the EC50 was determined as 7.5 µM. Also, the “activation of calcium mobilization” value at MRGD [2] is recorded as “stimulated calcium mobilization”. Also, at MRGD [2] (FIG. 8), the “potency relative to DT-110 or DT-109” value is “more than 10 fold”. Moreover, the results for the “significance of blood glucose lowering in OGTT” value with C57BL/6J mice (0.1 mg/g), with C57BL/6J mice (0.5 mg/g) and in the experiment on C57BL/6J mice (1 mg/g) were “did not”, “showed significance” and “showed significance”, respectively. Moreover, the “blood glucose in response to a glucose load (OGTT)” value in the experiment on C57BL/6J mice is “lower blood glucose in response to a glucose load, in a dose-dependent manner”.

alamandine: the “effect on DT-109 signaling” value on MRGD [5] (DT-109 at EC90) was “did not have any significant effect”. Besides, at MRGD [5] (DT-110 at EC90), the “effect on DT-110 signaling” value is reported as “did not have any significant effect”. For the same molecule, the “effect on β-alanine signaling” value on MRGD [5] (β-alanine at EC90, P<0.05) was “significantly decreased β-alanine signaling”. Further, on MRGD [2], the “activation of calcium mobilization” value is given as “no activation of calcium mobilization; also recorded: did not”. Further, the “overall effect on blood glucose in OGTT vs vehicle” value in the experiment with C57BL/6J mice was “weak but overall significant effect”. Moreover, the “eNOS mRNA levels” value in the experiment with eNOS (30 minutes, vs control) was “the same”. The eNOS expression entry is “increased eNOS expression” in the experiment on eNOS (60 minutes) and “returned to control levels” in the experiment with eNOS (120 minutes).

In the case of GGL [DT-109, three amino acid peptide glycine-glycine-leucine (GGL)], in [6], the “EC50, calcium mobilization in MRGD over-expressing cells (FIG. 5)” value amounted to 600 µM and the “EC50, calcium mobilization in the MRGD cell line (FIG. 8)” value amounted to 178 µM.
